Source: patent US11439696B2, “Modulation of proprotein convertase subtilisin/kexin 9 expression (PCSK9) with HSP 27 and/or HSP25” (PEMI31 Therapeutics Inc., priority 2015, dated 2022)
Values joined by “and” are separate entries in the source; they are usually repeats but may differ in a detail not shown here. Equal entries are not always repeated.

Assays:
PCSK9 [1] = test: Western blot (relative densitometry) of PCSK9 expression in HepG2 (liver) cells; assay type: cell-based; settings: HepG2 (liver) cells treated for 1 h (FIG. 15)
Experimental: (§1) HepG2 cells (0.5×10^6 cells/60 mm well) were incubated on H-Glucose DMEM medium containing 10% FBS and 1×penicillin/streptomycin in the presence or absence of rHsp27 (200 μg) for specified time periods at 37° C. At the end of incubation period, the medium was removed and centrifuged at 4,000 rpm for 10 min at 4° C. to remove a small amount of residual cells and debris. The supernatant fraction was stored at 4° C. until analyzed.
(§2) Meanwhile, cells were washed three times with cold PBS, scraped off the dishes (after the addition of 1 ml lysis buffer (20 mM Tris-HCl; pH 8.0; 150 mM NaCl; 0.1 mM PMSF), and sonicated; whole cell lysates were then stored at −20° C. until use.
(§3) Total cell or tissue lysates were prepared in lysis buffer (20 mM Tris-Hcl pH8.0, 150 mM NaCl, 0.1% SDS, 0.1 mM PMSF). Lysates were cleared by centrifugation at 4° C., 12,000 rpm for 10 min, and protein concentrations were determined using the Bradford protein assay with BSA as the standard. […]
HepG2 cells in the 6-well plates were washed twice with phosphate-buffered saline and lifted by pipette with 1 ml PBS. […] The membrane fraction was re-suspended in PBS by sonication and the protein concentration was determined by Bradford reagent (Sigma). […] Signals on the membrane were visualized by chemi-luminescence of HRP substrate.

LDL-Receptor = test: Western blot (relative densitometry) of LDL-Receptor expression in HepG2 (liver) cells; assay type: cell-based; settings: HepG2 (liver) cells treated for 6 h (FIG. 16)
Experimental: as §1, §2, §3

LDL-Receptor (LDL-R) = test: LDL-Receptor fluorescent immunolabelling of HepG2 (liver) cells; assay type: cell-based; settings: HepG2, 17β-estradiol 100 nM or rHSP27 100 μg overnight (16 hours) (FIG. 17)
Experimental: HepG2 cells (10^5 cells) were seeded in SPL Coverglass sterile dish 35×10 mm (Bio Lab) for 2 days. Cells were then treated with 17β-estradiol (100 nM) or rHSP27 (100 μg) overnight (16 hours). After washing, cells were fixed in 4% paraformaldehyde, permeabilized in 0.5% (v/v) Triton x-100 for 10 minutes, washed, blocked in 10% horse serum (1 hour), washed, then incubated in primary antibody rabbit monoclonal to LDL-R (Ab52818; ABCAM; 1:100) 4° C. overnight. After washing, cells were incubated in secondary antibody fluorescein goat Anti-Rabbit IgG antibody (FI-1000; Vector Laboratories; 1:100) for 30 min at room temperature, then mounted with mounting medium with DAPI (VectaShield Antifade Mounting Medium with DAPI; Vector Labs H-1200) for at least 24 hour in the dark before visualization. Various controls were used, and included: (i) absence of the Triton treatement, and (ii) omitting the primary or secondary antibodies used for immunolabelling. Immunofluorescence 10^5 cells were seeded ina SPL coverglass sterile dish 35×10 mm (Bio Lab) for 2 days. The cells were then treated with 17 β-estradiol (100 nM) or rHSP27 (100 μg) overnight (16 hours). […] Mounted with mounting medium with DAPI (VectaShield Antifade Mounting Medium with DAPI; Vector Labs H-1200) for at least 24 hour in the dark before visualization with fluorescence microscopy.

PCSK9 [2] = test: PCSK9 secretion from HepG2 (liver) cells with increasing doses of Atorvastatin; assay type: cell-based; settings: HepG2, increasing doses of AV (FIG. 12)
Experimental: […] At the end of incubation period, the medium was removed and centrifuged at 4,000 rpm for 10 min at 4° C. to remove a small amount of residual cells and debris. The supernatant fraction was stored at 4° C. until analyzed.
Total cell or tissue lysates were prepared in lysis buffer (20 mM Tris-Hcl pH8.0, 150 mM NaCl, 0.1% SDS, 0.1 mM PMSF). Lysates were cleared by centrifugation at 4° C., 12,000 rpm for 10 min, and protein concentrations were determined using the Bradford protein assay with BSA as the standard. Samples (30 μl culture medium, 50 μg for cell and 25 μg for liver) were separated by SDS-PAGE under reducing conditions, transferred to IMMOBILON® PVDF (IMMOBILON is a registered trademark of Millipore Corp.) using IBLOT® Dry Blotting System (Life Technologies; IBLOT is a registered trademark of Invitrogen Corp., Carlsbad, Calif., USA) and subsequently membranes were immunoblotted with the following antibodies: LDL-R (Santa Cruz, 1:1000) and PCSK9 (Santa Cruz, 1:1000); β-Actin (Santa Cruz, 1:1000) was used as the loading control. Appropriate secondary HRP-conjugated antibodies were used prior to visualization by enhanced chemiluminescence (ECL, Life technologies).

PCSK9 mRNA = PCSK9 mRNA expression in HepG2 (liver) cells by quantitative RT-PCR; assay type: cell-based; settings: HepG2 (FIG. 14)
[3] = Stability of HSP27 in human serum at −20° C. (MRM-MS); assay type: physicochemical; settings: two representative human sera, 3 weeks storage at −20° C. (FIG. 7E)
Experimental: The assay was fully validated according to the U.S. Food and Drug Administration (FDA) Bioanalytical method validation guideline (www.fda.dov/downloads/Drugs/GuidanceComplianceRegulatoryInformation/Guidances/UCM070107). Nine calibration standards of trypsin-digested recombinant HSP27 were prepared by serial dilution in concentrations of 1000; 500; 250; 125; 62.5; 31.25; 15.625; 7.8 and 0 ng/ml. The limit of detection (LOD) was calculated as the smallest detectable peak above baseline noise (signal-to-noise ratio>3:1). Calculating target peptide: AQUA peptide ratios of the peak area for each concentration level. Standard curves were constructed by linear regression analysis by excel. The same samples were analyzed 7 times and the repeatability was compared. Extraction efficiency and recovery were performed by comparing concentrations between samples without and with standard rHSP27. Matrix effect was assessed using double dilution test for the linearity when serum samples were 1, 2, 4 and 8 times diluted. Parallelism test was also applied to estimate matrix effect. Stability of HSP27 in human serum was estimated for 21 days at −20° C.

C[C@]12CC[C@@H]3c4ccc(O)cc4CC[C@H]3[C@@H]1CC[C@@H]2O [17 β-estradiol]
reduction in PCSK9 expression (PCSK9 [1]): 28% | increase in LDL-Receptor expression (LDL-Receptor): 116% | LDL-R signal (LDL-Receptor (LDL-R)): increased

CC(C)c1c(C(=O)Nc2ccccc2)c(-c2ccccc2)c(-c2ccc(F)cc2)n1CC[C@@H](O)C[C@@H](O)CC(=O)O [AV, Atorvastatin]
secretion of PCSK9 (PCSK9 [2]): dose-dependent secretion | PCSK9 expression (mRNA) on treatment with AV (PCSK9 mRNA): increase

endogenous HSP27: endogenous heat shock protein 27 in human serum samples, measured by MRM-MS
endogenous HSP27 remaining after storage [3]: 111+6 % of fresh sera and 87+5 % of fresh sera
